Source: publication PMC4501388 (European journal of medicinal chemistry, 2015)
Several values for one entry are separate records, joined by “and”; a condition that tells them apart may be missing. Equal entries are not always repeated.

Legend:
TK1 [1] = molecular target: T1, TK1 (Homo sapiens, UniProt P04183); test: Phosphate transfer assay; assay type: biochemical; conditions: 100 μM nucleoside analogue and 100 μM ATP
T1 sequence (P04183 1-234): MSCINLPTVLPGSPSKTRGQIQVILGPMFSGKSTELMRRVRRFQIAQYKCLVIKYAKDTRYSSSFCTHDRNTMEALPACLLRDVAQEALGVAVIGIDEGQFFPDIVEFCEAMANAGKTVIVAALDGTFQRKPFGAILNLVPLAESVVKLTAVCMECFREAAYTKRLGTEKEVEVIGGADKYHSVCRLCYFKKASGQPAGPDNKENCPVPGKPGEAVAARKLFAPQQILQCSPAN

TK1 [2] = molecular target: T1, TK1; test: Enzyme kinetic studies; assay type: biochemical; conditions: 1.95–500 μM nucleoside analogue and 100 μM ATP
[3] = Stability during storage in aqueous solutions; assay type: physicochemical
TK1 [4] = molecular target: T1, TK1; test: Competitive TK1 inhibition studies; conditions: 0.5 μM dThd, 5 mM ATP, 0–250.00 μM nucleoside analogue
[5] = test system: rats bearing intracerebral RG2 gliomas; test: In vivo biodistribution study, boron determination by ICP-OES; design: species or system rat
RG2 glioma cells = test: In vitro metabolomic HRMS study; assay type: cell-based, rat
[6] = test system: TK1(+)- and TK1(−) L929 cells; conditions: cited from earlier work

## 3-({2-[2-(closo-1,7-Carboranyl)ethyl]amino}-2-oxoethyl)thymidine [Compound 28]
TK1 [1]
  rPR (phosphorylation rate relative to that of dThd): 19.2 ± 4.5%

## 3-({2-[2-(closo-1,7-Carboranyl)ethyl]amino}ethyl)thymidine [Compound 16]
TK1 [1]
  rPR (phosphorylation rate relative to that of dThd): 35.2 ± 5.3%

## 3-({2-[3-(closo-1,7-Carboranyl)propyl]amino}ethyl)thymidine [Compound 17]
TK1 [1]
  rPR (phosphorylation rate relative to that of dThd): 24.5 ± 7.8%

## 3-({2-[3-(closo-1,7-carboranyl)propyl]amino}-2-oxoethyl)thymidine [Compound 29]
TK1 [1]
  rPR (phosphorylation rate relative to that of dThd): 14.5 ± 4.8%

## 3-({2-[4-(closo-1,7-Carboranyl)butyl]amino}ethyl)thymidine [Compound 18]
TK1 [1]
  rPR (phosphorylation rate relative to that of dThd): 44.4 ± 8.7%

## 3-({2-[4-(closo-1,7-carboranyl)butyl]amino}-2-oxoethyl)thymidine [Compound 30]
TK1 [1]
  rPR (phosphorylation rate relative to that of dThd): 12.3 ± 8.7%

## 3-({3-[3-(closo-1,7-Carboranyl)propyl]amino}propyl)thymidine [Compound 19]
TK1 [1]
  rPR (phosphorylation rate relative to that of dThd): 18.8 ± 4.8%

## 3-({3-[4-(closo-1,7-Carboranyl)butyl]amino}propyl)thymidine [Compound 20]
TK1 [1]
  rPR (phosphorylation rate relative to that of dThd): 19.5 ± 5.3%

## 3-({4-[3-(closo-1,7-Carboranyl)propyl]amino}butyl)thymidine [Compound 21]
TK1 [2]
  Km: 80.1 ± 37.6 µM
  kcat: 5.9 s⁻¹
  rkcat/Km (kcat/Km relative to that of 1): 2.0%
[3]
  Stability during storage: stable
TK1 [1]
  rPR (phosphorylation rate relative to that of dThd): 45% and 45.2 ± 3.8%
TK1 [4]
  IC50: > 250 µM

## 3-({4-[4-(closo-1,7-Carboranyl)butyl]amino}butyl)thymidine [Compound 22]
TK1 [2]
  Km: 39.8 ± 10.4 µM
  kcat: 5.4 s⁻¹
  rkcat/Km (kcat/Km relative to that of 1): 3.7%
[3]
  Stability during storage: stable
TK1 [1]
  rPR (phosphorylation rate relative to that of dThd): 38% and 38.0 ± 6.5%
TK1 [4]
  IC50: > 250 µM

## 3-[5-{2-(2,3-dihydroxyprop-1-yl)-o-carboran-1-yl}pentan-1-yl]thymidine [Compound 2]
TK1 [2]
  Km: 24.3 ± 2.1 µM
  kcat: 5.1 s⁻¹
  rkcat/Km (kcat/Km relative to that of 1): 5.8%
[3]
  Stability during storage: stable
[5]; 100 μg boron i.c. by ALZET pump over 24 h, RG2 glioma, Fischer rats
  Boron concentration, Tumor: 8.9 µg/g and 8.8 ± 2.9 µg/g
[5]; tumor to blood boron ratio, i.c. over 24 h
  Ratio T/Bl (tumor/blood ratio): 9.3
[5]; tumor to brain boron ratio, i.c. over 24 h
  Ratio T/B: 4.3
TK1 [1]
  rPR (phosphorylation rate relative to that of dThd): 40.0% and 40.0 ± 11.2%
RG2 glioma cells; RG2 cells, HRMS positive and negative ion mode
  Di- and triphosphate metabolites: could not be detected
RG2 glioma cells; TK1(+) RG2 cells, 17.5 μM, 2 hours, HRMS
  5′-Monophosphate metabolite formation: monophosphorylated
TK1 [4]
  IC50: 37.5 ± 6.3 µM
[6]; TK1(+) L929 cells
  Di- and triphosphorylation: did not seem to occur
[6]; TK1(+) vs TK1(−) L929 cells, tritiated compound
  Intracellular monophosphate metabolite formation: production of tritiated 2-MP in TK1(+) L929 cells but not in their TK1(−) L929 counterparts

## 3-{[3-(closo-1,7-Carboranyl)propyl]amino}thymidine [Compound 9]
TK1 [1]
  rPR (phosphorylation rate relative to that of dThd): ~ 30%
